According to patent publication US9260417B2, “Therapeutic methods and compositions involving allosteric kinase inhibition” (AMITECH THERAPEUTIC SOLUTIONS, INC., priority 2010, dated 2016):

Experiments:
Experiment in all cases: KINOMEscan competitive binding assay
Settings in all cases: 10 uM
INSR = INSR (Homo sapiens (Human), UniProt P06213)
From the text: (§1) In vitro kinase screen and competitive binding assay. Sorafenib as well as test compounds were submitted to Invitrogen and screened using their SelectScreen™ Profiling Service.

PIK3CA = PIK3CA (Homo sapiens (Human), UniProt P42336)
From the text: as §1

LKB1 = LKB1 (Homo sapiens (Human), UniProt Q15831)
From the text: as §1

FLT4 = FLT4 (Homo sapiens (Human), UniProt P35916)
From the text: as §1

FLT3(ITD) = tested on: FLT3(ITD)
From the text: as §1

RIOK3 = RIOK3 (Homo sapiens (Human), UniProt O14730)
From the text: as §1

CDK2 = CDK2 (Homo sapiens (Human), UniProt P24941)
From the text: as §1

PRKCD = PRKCD (Homo sapiens (Human), UniProt Q05655)
From the text: as §1

KIT(D616V) = tested on: KIT(D616V)
From the text: as §1

MEK1 = MEK1 (Homo sapiens (Human), UniProt Q02750)
From the text: as §1

BRAF(V600E) = BRAF(V600E) (Homo sapiens (Human), UniProt P15056, V600E)
From the text: as §1

AMPK-alpha1 = AMPK-alpha1 (Homo sapiens (Human), UniProt Q13131)
From the text: as §1

FLT3(D835H) = FLT3(D835H) (Homo sapiens (Human), UniProt P36888, D835H)
From the text: as §1

TIE1 = TIE1 (Homo sapiens (Human), UniProt P35590)
From the text: as §1

FLT3 D835Y = FLT3 D835Y (Homo sapiens (Human), UniProt P36888, D835Y)
From the text: as §1

ERK2 = ERK2 (Homo sapiens (Human), UniProt P28482)
From the text: as §1

EPHA2 = EPHA2 (Homo sapiens (Human), UniProt P29317)
From the text: as §1

FLT1 = FLT1 (Homo sapiens (Human), UniProt P17948)
From the text: as §1

TRKA = TRKA (Homo sapiens (Human), UniProt P04629)
From the text: as §1

LIMK2 = LIMK2 (Homo sapiens (Human), UniProt P53671)
From the text: as §1

ARK5 = ARK5 (Homo sapiens (Human), UniProt O60285)
From the text: as §1

FAK = FAK (Homo sapiens (Human), UniProt Q05397)
From the text: as §1

PAK4 = PAK4 (Homo sapiens (Human), UniProt O96013)
From the text: as §1

JNK1 = JNK1 (Homo sapiens (Human), UniProt P45983)
From the text: as §1

RIPK1 = RIPK1 (Homo sapiens (Human), UniProt Q13546)
From the text: as §1

MET = MET (Homo sapiens (Human), UniProt P08581)
From the text: as §1

CDK5 = CDK5 (Homo sapiens (Human), UniProt Q00535)
From the text: as §1

CDK9 = CDK9 (Homo sapiens (Human), UniProt P50750)
From the text: as §1

KIT(V559D) = KIT(V559D) (Homo sapiens (Human), UniProt P10721, V559D)
From the text: as §1

CDK7 = CDK7 (Homo sapiens (Human), UniProt P50613)
From the text: as §1

CDK3 = CDK3 (Homo sapiens (Human), UniProt Q00526)
From the text: as §1

AXL = AXL (Homo sapiens (Human), UniProt P30530)
From the text: as §1

IGF1R = IGF1R (Homo sapiens (Human), UniProt P08069)
From the text: as §1

BMX = BMX (Homo sapiens (Human), UniProt P51813)
From the text: as §1

CLK2 = CLK2 (Homo sapiens (Human), UniProt P49760)
From the text: as §1

Sequence of PRKCD (Q05655 whole entry): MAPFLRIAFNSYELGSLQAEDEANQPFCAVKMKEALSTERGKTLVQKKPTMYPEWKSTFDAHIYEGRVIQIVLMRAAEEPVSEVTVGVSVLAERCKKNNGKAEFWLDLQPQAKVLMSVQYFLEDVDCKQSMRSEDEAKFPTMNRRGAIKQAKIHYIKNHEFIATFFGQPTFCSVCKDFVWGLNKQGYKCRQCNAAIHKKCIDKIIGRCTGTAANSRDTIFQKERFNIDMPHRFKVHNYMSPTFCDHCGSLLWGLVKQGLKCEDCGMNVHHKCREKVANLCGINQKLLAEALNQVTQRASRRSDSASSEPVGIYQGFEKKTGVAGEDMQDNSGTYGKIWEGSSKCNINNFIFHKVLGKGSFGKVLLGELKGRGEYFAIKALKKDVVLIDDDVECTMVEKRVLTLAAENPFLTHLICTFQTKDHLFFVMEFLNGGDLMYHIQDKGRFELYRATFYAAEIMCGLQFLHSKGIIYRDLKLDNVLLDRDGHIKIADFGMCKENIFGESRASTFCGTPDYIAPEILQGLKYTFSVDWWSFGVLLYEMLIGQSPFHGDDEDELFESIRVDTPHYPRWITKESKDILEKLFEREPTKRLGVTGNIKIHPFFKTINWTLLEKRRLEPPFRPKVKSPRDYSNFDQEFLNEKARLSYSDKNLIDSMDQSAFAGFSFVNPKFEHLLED
Sequence of PIK3CA (P42336 whole entry): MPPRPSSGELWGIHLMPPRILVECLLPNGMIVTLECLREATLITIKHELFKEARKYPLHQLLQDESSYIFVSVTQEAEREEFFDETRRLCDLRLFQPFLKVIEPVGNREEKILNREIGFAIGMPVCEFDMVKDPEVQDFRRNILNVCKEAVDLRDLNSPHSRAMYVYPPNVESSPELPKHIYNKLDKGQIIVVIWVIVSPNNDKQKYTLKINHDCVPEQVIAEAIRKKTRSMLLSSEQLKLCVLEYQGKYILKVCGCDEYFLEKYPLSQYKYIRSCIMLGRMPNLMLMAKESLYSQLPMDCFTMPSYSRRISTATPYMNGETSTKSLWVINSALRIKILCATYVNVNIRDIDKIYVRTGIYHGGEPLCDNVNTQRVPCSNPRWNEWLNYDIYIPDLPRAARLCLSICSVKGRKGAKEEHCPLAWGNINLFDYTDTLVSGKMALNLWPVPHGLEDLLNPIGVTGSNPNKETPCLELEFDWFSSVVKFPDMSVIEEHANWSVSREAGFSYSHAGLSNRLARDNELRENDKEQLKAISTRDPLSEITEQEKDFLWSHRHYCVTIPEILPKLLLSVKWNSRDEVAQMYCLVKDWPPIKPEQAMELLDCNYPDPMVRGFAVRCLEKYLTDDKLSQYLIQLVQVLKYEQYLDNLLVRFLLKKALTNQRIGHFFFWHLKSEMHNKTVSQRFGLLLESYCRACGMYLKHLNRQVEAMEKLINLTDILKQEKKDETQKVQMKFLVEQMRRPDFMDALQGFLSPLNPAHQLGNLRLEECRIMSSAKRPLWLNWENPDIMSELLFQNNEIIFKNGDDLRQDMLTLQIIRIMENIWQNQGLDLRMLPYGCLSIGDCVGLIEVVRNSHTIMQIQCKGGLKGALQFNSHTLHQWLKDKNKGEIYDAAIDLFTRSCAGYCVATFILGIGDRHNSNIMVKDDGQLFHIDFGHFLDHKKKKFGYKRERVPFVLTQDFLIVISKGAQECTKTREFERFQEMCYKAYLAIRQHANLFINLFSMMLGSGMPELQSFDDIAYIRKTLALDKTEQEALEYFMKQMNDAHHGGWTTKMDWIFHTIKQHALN
Sequence of IGF1R (P08069 31-1367): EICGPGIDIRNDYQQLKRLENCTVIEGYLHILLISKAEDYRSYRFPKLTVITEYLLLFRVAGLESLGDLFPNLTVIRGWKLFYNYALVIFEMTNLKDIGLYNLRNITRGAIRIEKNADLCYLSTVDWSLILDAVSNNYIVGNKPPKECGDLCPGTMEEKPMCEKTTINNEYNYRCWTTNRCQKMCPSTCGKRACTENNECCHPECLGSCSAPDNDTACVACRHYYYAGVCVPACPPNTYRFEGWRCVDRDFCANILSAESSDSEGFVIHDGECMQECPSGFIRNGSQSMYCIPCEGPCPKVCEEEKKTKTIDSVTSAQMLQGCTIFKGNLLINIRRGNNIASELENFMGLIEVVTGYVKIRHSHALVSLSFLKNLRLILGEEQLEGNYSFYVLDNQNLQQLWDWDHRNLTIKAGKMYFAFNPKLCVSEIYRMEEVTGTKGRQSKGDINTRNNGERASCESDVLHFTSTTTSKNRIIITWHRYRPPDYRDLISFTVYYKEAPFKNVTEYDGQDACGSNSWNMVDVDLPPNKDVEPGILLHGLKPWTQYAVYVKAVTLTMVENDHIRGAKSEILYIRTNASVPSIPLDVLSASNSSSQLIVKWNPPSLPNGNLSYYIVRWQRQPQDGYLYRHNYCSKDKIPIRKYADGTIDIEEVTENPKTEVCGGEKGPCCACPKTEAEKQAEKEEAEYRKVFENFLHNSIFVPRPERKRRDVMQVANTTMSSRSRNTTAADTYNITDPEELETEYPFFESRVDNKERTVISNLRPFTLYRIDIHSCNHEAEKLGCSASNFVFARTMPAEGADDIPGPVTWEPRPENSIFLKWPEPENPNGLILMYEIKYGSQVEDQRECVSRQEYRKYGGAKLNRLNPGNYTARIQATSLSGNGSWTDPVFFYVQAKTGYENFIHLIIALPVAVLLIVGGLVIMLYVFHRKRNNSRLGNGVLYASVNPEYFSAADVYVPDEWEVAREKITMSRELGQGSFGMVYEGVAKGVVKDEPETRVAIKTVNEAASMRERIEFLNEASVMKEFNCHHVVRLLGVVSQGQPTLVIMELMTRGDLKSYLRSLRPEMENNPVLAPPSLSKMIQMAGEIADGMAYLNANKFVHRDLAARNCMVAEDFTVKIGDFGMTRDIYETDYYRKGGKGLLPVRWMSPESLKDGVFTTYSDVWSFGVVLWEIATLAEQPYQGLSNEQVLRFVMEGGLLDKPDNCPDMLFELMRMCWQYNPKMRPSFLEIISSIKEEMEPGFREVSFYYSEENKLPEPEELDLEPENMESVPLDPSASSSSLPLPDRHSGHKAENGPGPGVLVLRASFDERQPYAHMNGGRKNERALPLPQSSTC
Sequence of LIMK2 (P53671 whole entry): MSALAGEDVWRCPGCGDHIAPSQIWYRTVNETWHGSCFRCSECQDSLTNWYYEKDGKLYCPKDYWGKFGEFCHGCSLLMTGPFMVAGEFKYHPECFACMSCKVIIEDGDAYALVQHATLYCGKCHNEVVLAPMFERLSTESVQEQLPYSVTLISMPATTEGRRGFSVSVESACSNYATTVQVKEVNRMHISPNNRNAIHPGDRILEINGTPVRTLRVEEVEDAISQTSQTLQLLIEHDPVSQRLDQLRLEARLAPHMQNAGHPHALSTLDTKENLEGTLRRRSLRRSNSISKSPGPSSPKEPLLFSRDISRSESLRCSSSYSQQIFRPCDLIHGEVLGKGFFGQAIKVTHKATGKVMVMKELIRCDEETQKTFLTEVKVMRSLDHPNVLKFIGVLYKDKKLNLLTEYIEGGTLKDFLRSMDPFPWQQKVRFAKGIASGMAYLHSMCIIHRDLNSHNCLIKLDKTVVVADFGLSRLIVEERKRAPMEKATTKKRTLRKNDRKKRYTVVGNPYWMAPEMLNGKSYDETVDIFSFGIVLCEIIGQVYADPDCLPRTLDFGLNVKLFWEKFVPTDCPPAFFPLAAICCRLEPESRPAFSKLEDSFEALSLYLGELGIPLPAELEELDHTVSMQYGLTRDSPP
Sequence of CDK7 (P50613 whole entry): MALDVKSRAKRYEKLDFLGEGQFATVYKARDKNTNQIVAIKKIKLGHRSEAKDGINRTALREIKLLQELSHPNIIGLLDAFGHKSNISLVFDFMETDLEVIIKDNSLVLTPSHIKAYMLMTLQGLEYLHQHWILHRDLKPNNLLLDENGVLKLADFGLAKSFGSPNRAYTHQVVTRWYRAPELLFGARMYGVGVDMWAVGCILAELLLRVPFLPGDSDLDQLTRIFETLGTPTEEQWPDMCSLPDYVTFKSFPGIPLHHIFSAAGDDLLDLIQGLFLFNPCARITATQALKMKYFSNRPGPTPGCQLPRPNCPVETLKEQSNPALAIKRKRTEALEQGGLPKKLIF
Sequence of MEK1 (Q02750 whole entry): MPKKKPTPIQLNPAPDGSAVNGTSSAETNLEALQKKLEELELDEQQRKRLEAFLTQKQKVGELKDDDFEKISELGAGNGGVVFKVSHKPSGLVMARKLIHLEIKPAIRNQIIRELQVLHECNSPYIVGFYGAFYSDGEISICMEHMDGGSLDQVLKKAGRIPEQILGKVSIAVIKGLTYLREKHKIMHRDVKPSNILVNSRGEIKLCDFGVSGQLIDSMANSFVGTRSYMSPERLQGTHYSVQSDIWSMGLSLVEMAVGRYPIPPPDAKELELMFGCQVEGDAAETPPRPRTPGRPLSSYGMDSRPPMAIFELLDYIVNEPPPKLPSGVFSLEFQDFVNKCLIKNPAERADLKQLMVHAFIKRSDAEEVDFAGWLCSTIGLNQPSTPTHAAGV
Sequence of ERK2 (P28482 whole entry): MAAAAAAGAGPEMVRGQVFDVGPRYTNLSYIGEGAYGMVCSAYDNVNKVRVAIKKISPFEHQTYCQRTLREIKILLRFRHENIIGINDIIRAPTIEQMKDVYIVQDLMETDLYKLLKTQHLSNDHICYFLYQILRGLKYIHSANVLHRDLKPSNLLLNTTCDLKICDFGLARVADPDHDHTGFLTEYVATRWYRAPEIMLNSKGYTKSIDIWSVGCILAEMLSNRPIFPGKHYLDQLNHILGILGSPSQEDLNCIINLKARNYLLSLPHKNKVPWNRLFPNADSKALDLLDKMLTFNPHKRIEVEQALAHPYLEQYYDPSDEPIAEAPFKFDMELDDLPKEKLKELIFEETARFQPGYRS

Question: How did the “% Control” value (INSR) turn out when CSc1nc(N)cc(Oc2ccc(-c3nnc(Nc4cccc(C(F)(F)F)c4)[nH]3)cc2)n1 [Compound 6] was run?
Answer: 100%

Question: What about the “% Control” value (PIK3CA) of the same compound?
Answer: 100%

Question: What about the “% Control” value (LKB1) of the same compound?
Answer: 100%

Question: What about the “% Control” value (FLT4) of the same compound?
Answer: 100%

Question: What about the “% Control” value (FLT3(ITD)) of the same compound?
Answer: 3.1%

Question: And the “% Control” value (RIOK3)?
Answer: 100%

Question: And the “% Control” value (CDK2)?
Answer: 87%

Question: What about the “% Control” value (PRKCD) of the same compound?
Answer: 74%

Question: And the “% Control” value (KIT(D616V))?
Answer: 76%

Question: And the “% Control” value (MEK1)?
Answer: 84%

Question: What about the “% Control” value (BRAF(V600E)) of the same compound?
Answer: 98%

Question: And the “% Control” value (AMPK-alpha1)?
Answer: 72%

Question: And the “% Control” value (FLT3(D835H))?
Answer: 17%

Question: And the “% Control” value (TIE1)?
Answer: 76%

Question: And the “% Control” value (FLT3 D835Y)?
Answer: 18%

Question: What about the “% Control” value (ERK2) of the same compound?
Answer: 90%

Question: And the “% Control” value (EPHA2)?
Answer: 100%

Question: And the “% Control” value (FLT1)?
Answer: 81%

Question: What about the “% Control” value (TRKA) of the same compound?
Answer: 64%

Question: What about the “% Control” value (LIMK2) of the same compound?
Answer: 72%

Question: What about the “% Control” value (ARK5) of the same compound?
Answer: 70%

Question: What about the “% Control” value (FAK) of the same compound?
Answer: 100%

Question: What about the “% Control” value (PAK4) of the same compound?
Answer: 100%

Question: And the “% Control” value (JNK1)?
Answer: 98%

Question: And the “% Control” value (RIPK1)?
Answer: 84%

Question: And the “% Control” value (MET)?
Answer: 94%

Question: And the “% Control” value (CDK5)?
Answer: 88%

Question: What about the “% Control” value (CDK9) of the same compound?
Answer: 100%

Question: What about the “% Control” value (KIT(V559D)) of the same compound?
Answer: 0.1%

Question: And the “% Control” value (CDK7)?
Answer: 97%

Question: And the “% Control” value (CDK3)?
Answer: 91%

Question: What about the “% Control” value (AXL) of the same compound?
Answer: 87%

Question: What about the “% Control” value (IGF1R) of the same compound?
Answer: 100%

Question: What about the “% Control” value (BMX) of the same compound?
Answer: 97%

Question: And the “% Control” value (CLK2)?
Answer: 84%
